Legend:
insulin = insulin (Homo sapiens, UniProt P01308); experiment: Fluorescence response of CLU compounds to insulin; type: binding
Description: All the reagents and solvents were purchased from Aldrich, Alfa and Acros organics and used without further purification. All reactions were performed in oven-dried glassware under a positive pressure of nitrogen. Analytical TLC was carried out on Merck 60 F254 silica gel plate (0.25 mm layer thickness) and visualization was done with UV light. Column chromatography was performed on Merck 60 silica gel (230-400 mesh). NMR spectra were recorded on a Bruker Avance 300 NMR spectrometer. Chemical shifts are reported as 6 in units of parts per million (ppm) and coupling constants are reported as a J value in Hertz (Hz). Mass of all the compounds was determined by LC-MS of Agilent Technologies with an electrospray ionization source. Spectroscopic measurements were performed on a fluorometer and UV/VIS instrument, Synergy 4 of bioteck company and Gemini XS fluorescence plate reader. The slit width was 1 nm for both excitation and emission.
The present invention includes the synthesis of fluorescent chalcone-urea library (CLU), which was prepared on solid support. The CLU library was screened against four different concentrations of insulin (0.2, 0.1, 0.05 and 0.025 mg/mL) in HEPES buffer (20 mM, pH=7.4). Based on fluorescent intensity, 5 hits with more than 50-fold increase were selected (Table 2). CLU-381 was further derivatized due to the synthetic convenience to render 8 derivatives (Table 3).

serum albumin = experiment: Selectivity of fluorescence response to insulin over serum albumins (BSA, HSA, HSA lipid free); type: binding; conditions: over serum albumin (BSA, HSA, HSA lipid free; FIG. 1c)
Excerpt: FIG. 1c is a graph showing the selectivity of Insulin Green to insulin over bovine serum albumin (BSA), human serum albumin (HSA) and HSA lipid free.

Chain of insulin (P01308 25-54 limits assumed, species assumed): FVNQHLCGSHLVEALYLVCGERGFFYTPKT
Chain of insulin (P01308 90-110 limits assumed, species assumed): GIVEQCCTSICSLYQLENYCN

- fluorescent increase to insulin (insulin; 200 μg/mL insulin (FIG. 1a)): 94 fold
- responsiveness to insulin among the 8 CLU-381 derivatives (insulin; 8 derivatives tested against insulin): most responsive compound
- selectivity for insulin over other proteins (serum albumin): good selectivity over other proteins
Structure (SMILES): COc1ccc(CNC(=O)Nc2ccc(C(=O)/C=C/c3ccc(N(CCO)CCO)cc3)cc2)cc1 [Insulin Green]

Reference: patent US20170168073A1, “CHALCONE-UREA DERIVATIVES AS INSULIN SENSORS” (Agency for Science, Technology and Research, priority 2013, published 2017)
